Laboratory results reported in article PMC6199744, “Development of Chemical Proteomics for the Folateome and Analysis of the Kinetoplastid Folateome” (ACS Infectious Diseases, 2018).

System: L. major lysate proteins
Experiment: Multitargeted bead mixture chemoproteomics, single concentration competition, proteome-wide
Format: binding
Conditions: for fold change / fold change relative to vehicle control: vehicle control = 1; for fold change relative to vehicle control: competition with free ligand

CCCCCCOc1ccc(Cc2cnc(N)nc2N)cc1 [compound 1]
fold change (protein LMJF.22.1460 I/6 AUTOANTIGEN-LIKE PROTEIN): 0.95 | fold change vs vehicle control (protein LMJF.22.1540 ALANYL-TRNA SYNTHETASE, PUTATIVE): 0.85 | fold change vs vehicle control (protein LMJF.23.0370 […] OXIDASE SUBUNIT 10, PUTATIVE): 1.08 | fold change (protein LMJF.23.0830 NA/H ANTIPORTER-LIKE PROTEIN): 0.89 | fold change (protein LMJF.23.1020 HYPOTHETICAL PROTEIN, UNKNOWN FUNCTION): 0.87 | fold change (protein LMJF.23.1220 T-COMPLEX PROTEIN 1, GAMMA SUBUNIT, PUTATIVE): 1.03 | fold change vs vehicle control (protein LMJF.24.0140 ANKYRIN/TPR REPEAT PROTEIN): 1.09 | fold change (protein LMJF.24.0280 DYNEIN INTERMEDIATE-CHAIN-LIKE PROTEIN): 0.97 | fold change (protein LMJF.24.0770 MALIC ENZYME, PUTATIVE): 0.95 | fold change relative to vehicle control (protein LMJF.24.1510 IGE-DEPENDENT HISTAMINE-RELEASING FACTOR, PUTATIVE): 1.09 | fold change vs vehicle control (protein LMJF.24.1630, SUCCINATE DEHYDROGENASE FLAVOPROTEIN, PUTATIVE): 0.9 | fold change vs vehicle control (protein LMJF.24.1840 LYSOPHOSPHOLIPASE, PUTATIVE): 1.07 | fold change relative to vehicle control (protein LMJF.24.2060 TRANSKETOLASE): 0.84 | fold change (protein LMJF.24.2250 FATTY-ACID DESATURASE, PUTATIVE): 1.09 | fold change vs vehicle control (protein LMJF.25.0120 ELECTRON TRANSFER FLAVOPROTEIN, PUTATIVE): 1.75 | fold change vs vehicle control (protein LMJF.25.0260 DYNEIN LIGHT CHAIN 1, CYTOPLASMIC, PUTATIVE): 0.91 | fold change relative to vehicle control (protein LMJF.25.0910 C[…]): 1.46 | fold change vs vehicle control (protein LMJF.25.1180, ATPASE BETA SUBUNIT, PUTATIVE): 1.06 | fold change (protein LMJF.25.1610 HYPOTHETICAL PROTEIN, CONSERVED): 0.79 | fold change (protein LMJF.25.1620 HY[…], CONSERVED): 1.11 | fold change vs vehicle control (protein LMJF.26.1240 HEAT SHOCK PROTEIN 70-RELATED PROTEIN): 1.01 | fold change vs vehicle control (protein LMJF.26.1710 […] OXIDASE SUBUNIT V, PUTATIVE): 1.04 | fold change vs vehicle control (protein LMJF.26.1960 HY[…], CONSERVED): 1.01 | fold change vs vehicle control (protein LMJF.26.2000 HY[…], CONSERVED): 1.05 | fold change vs vehicle control (protein LMJF.27.0420 RIBOKINASE, PUTATIVE): 1.05 | fold change vs vehicle control (protein LMJF.27.1060 CYSTEINE DESULFURASE, PUTATIVE): 0.97 | fold change (protein LMJF.27.1310 ARGINYL-TRNA SYNTHETASE, PUTATIVE): 1.05 | fold change vs vehicle control (protein LMJF.27.2400 HEAT SHOCK PROTEIN DNAJ, PUTATIVE): 0.91 | fold change vs vehicle control (protein LMJF.28.0110 […] 3 SUBUNIT, PUTATIVE): 1.04 | fold change vs vehicle control (protein LMJF.28.0930 HYPOTHETICAL PROTEIN, CONSERVED): 1 | fold change vs vehicle control (protein LMJF.28.0950 HY[…], CONSERVED): 1.07 | fold change vs vehicle control (protein LMJF.28.1950 X-PRO, DIPEPTIDYL-PEPTIDASE,SERINE PEPTIDASE, CLAN SC, FAMILY S15, PUTATIVE): 0.94 | fold change relative to vehicle control (protein LMJF.28.2770 HEAT-SHOCK PROTEIN HSP70, PUTATIVE): 1.15 | fold change (protein LMJF.29.0060 TRYPTOPHANYL-TRNA SYNTHETASE, PUTATIVE): 1 | fold change (protein LMJF.29.0820 CYSTEINE PEPTIDASE C (CPC)): 0.78 | fold change relative to vehicle control (protein LMJF.29.0850 HIGH MOBILITY GROUP PROTEIN HOMOLOG TDP-1, PUTATIVE): 1.77 | fold change vs vehicle control (protein LMJF.29.1160 TRYPAREDOXIN): 1 | fold change (protein LMJF.29.1760 PARAFLAGELLAR ROD PROTEIN 1D, PUTATIVE): 0.77 | fold change vs vehicle control (protein LMJF.29.1780 DIPHTHAMIDE SYNTHESIS PROTEIN, PUTATIVE): 0.62 | fold change vs vehicle control (protein LMJF.29.2240 AMINOPEPTIDASE, PUTATIVE): 0.98 | fold change (protein LMJF.29.2310 ENOYL-COA HYDRATASE/ISOMERASE-LIKE PROTEIN): 0.95 | fold change (protein LMJF.29.2860 40S RIBOSOMAL PROTEIN S19-LIKE PROTEIN): 1.25 | fold change vs vehicle control (protein LMJF.30.0850 SURFACE PROTEIN AMASTIN, PUTATIVE): 0.97 | fold change (protein LMJF.30.1250 PYRIDOXAL KINASE, PUTATIVE): 1.06 | fold change (protein LMJF.30.2580 RETICULON DOMAIN PROTEIN, 22 KDA POTENTIALLY AGGRAVATING PROTEIN (PAPLE22)): 1.3 | fold change vs vehicle control (protein LMJF.30.3190 3-HYDROXY-3-METHYLGLUTARYL-COA REDUCTASE): 0.77 | fold change vs vehicle control (protein LMJF.30.3520 S-ADENOSYL[…]): 1.09 | fold change vs vehicle control (protein LMJF.31.0440 CYTOSKELETON-[…] CAP5 5, PUTATIVE): 0.82 | fold change (protein LMJF.31.1130 N-ACYL-L-AMINO ACID AMIDOHYDROLASE, PUTATIVE): 0.74 | fold change vs vehicle control (protein LMJF.31.1640 THIOLASE PROTEIN-LIKE PROTEIN): 1.14 | fold change (protein LMJF.31.1800 AMINO ACID PERMEASE): 1.07 | fold change (protein LMJF.31.2250 3,2-TRANS-ENOYL-COA ISOMERASE, MIT[…], PUTATIVE): 0.85 | fold change vs vehicle control (protein LMJF.31.2790 ADP-RI[…], PUTATIVE): 1.12 | fold change (protein LMJF.31.3130 METHYLCROTONOYL-COA CARBOXYLASE BIOTINYLATED SUBUNITPROTEIN-LIKE PROTEIN): 0.91 | fold change (protein LMJF.32.0010 HYPOTHETICAL PROTEIN, CONSERVED): 0.92 | fold change vs vehicle control (protein LMJF.32.0400 ATP-DEPENDENT RNA HELICASE, PUTATIVE): 1 | fold change vs vehicle control (protein LMJF.32.0520 PROFILIN, PUTATIVE): 0.98 | fold change (protein LMJF.32.1000 CHAPERONIN CONTAINING T-COMPLEX PROTEIN, PUTATIVE): 0.99 | fold change vs vehicle control (protein LMJF.32.3010 HY[…], CONSERVED,LEUCINE-RICH REPEAT PROTEIN, PUTATIVE): 1.06 | fold change vs vehicle control (protein LMJF.32.3870 MYOSIN XXI): 0.77 | fold change vs vehicle control (protein LMJF.33.0890, HYPOTHETICAL PROTEIN, CONSERVED): 1.1 | fold change vs vehicle control (protein LMJF.33.1070 HYPOTHETICAL PROTEIN, UNKNOWN FUNCTION): 0.91 | fold change (protein LMJF.33.1330 CYSTEINE CONJUGATE BETA-LYASE, AMINOTRANSFERASE- LIKE PROTEIN): 1.04 | fold change (protein LMJF.33.1610 PEPTIDASE M20/M25/M40, PUTATIVE): 0.82 | fold change relative to vehicle control (protein LMJF.33.1630 CYCLOPHILIN 4, PUTATIVE): 1.08 | fold change vs vehicle control (protein LMJF.33.2300 UDP-GLC 4'-EPIMERASE, PUTATIVE): 1.07 | fold change vs vehicle control (protein LMJF.33.2390 HEAT SHOCK PROTEIN, PUTATIVE): 1.41 | fold change (protein LMJF.33.2410 HYPOTHETICAL PROTEIN, CONSERVED): 0.95 | fold change (protein LMJF.33.3150 40S RIBOSOMAL PROTEIN S13, PUTATIVE): 1.11 | fold change (protein LMJF.34.3500 RUVB-LIKE 1 DNA HELICASE, PUTATIVE): 0.93 | fold change (protein LMJF.34.3670 VACUOLAR ATP SYNTHASE CATALYTIC SUBUNIT A, PUTATIVE): 1.02 | fold change (protein LMJF.34.3740 SERINE PALMITOYLTRANSFERASE-LIKE PROTEIN): 0.91 | fold change (protein LMJF.34.4120 HYPOTHETICAL PROTEIN, CONSERVED): 0.82 | fold change vs vehicle control (protein LMJF.34.4370 20S PROTEASOME BETA 7 SUBUNIT, (PUTATIVE)): 0.95 | fold change (protein LMJF.35.0370 ATP-DEPENDENT DEAD-BOX RNA HELICASE, PUTATIVE): 1.01 | fold change vs vehicle control (protein LMJF.35.1380, MITOCHONDRIAL PROCESSING PEPTIDASE, BETA SUBUNIT, PUTATIVE): 0.97 | fold change vs vehicle control (protein LMJF.35.1410 THREONYL-TRNA SYNTHETASE, PUTATIVE): 0.94 | fold change vs vehicle control (protein LMJF.35.1720 CYCLOPHILIN 14, PUTATIVE): 1.02 | fold change (protein LMJF.35.2500 HYPOTHETICAL PROTEIN, CONSERVED): 0.72 | fold change (protein LMJF.35.2730 ACYL-COA DEHYDROGENASE, PUTATIVE): 0.86 | fold change relative to vehicle control (protein LMJF.35.3010 […],TRYPANOTHIONE-DEPENDENT […]): 1.13 | fold change vs vehicle control (protein LMJF.35.3100 ATP-DEPENDENT RNA HELICASE, PUTATIVE): 0.99 | fold change vs vehicle control (protein LMJF.35.3340 6-phosphogluconate dehydrogenase): 1.08 | fold change (protein LMJF.35.3700 GIM5A PROTEIN, PUTATIVE,GLYCOSOMAL MEMBRANE PROTEIN): 0.94 | fold change vs vehicle control (protein LMJF.35.3840, […] 2 SUBUNIT, PUTATIVE): 1.01 | fold change vs vehicle control (protein LMJF.35.3860 T-COMPLEX PROTEIN 1, ETA SUBUNIT, PUTATIVE): 0.99 | fold change (protein LMJF.35.4550 HYPOTHETICAL PROTEIN, CONSERVED): 0.97 | fold change (protein LMJF.35.4770 CYCLOPHILIN 40): 1.17 | fold change (protein LMJF.35.4850 PROTEASOME ALPHA 1 SUBUNIT, PUTATIVE): 0.91 | fold change (protein LMJF.35.4860 HYPOTHETICAL PROTEIN, CONSERVED): 0.85 | fold change relative to vehicle control (protein LMJF.35.5330 ISOPENTENYL-DIPHOSPHATE DELTA-ISOMERASE, PUTATIVE,ISOMERASE, PUTATIVE): 1.62 | fold change vs vehicle control (protein LMJF.36.0180 […] 2): 1.03 | fold change vs vehicle control (protein LMJF.36.0620 HY[…], CONSERVED): 1.34 | fold change vs vehicle control (protein LMJF.36.0990 40S RIBOSOMAL PROTEIN S10, PUTATIVE): 1.1 | fold change vs vehicle control (protein LMJF.36.2020 CHAPERONIN HSP60, MITOCHONDRIAL PRECURSOR): 0.95 | fold change vs vehicle control (protein LMJF.36.3460 HYPOTHETICAL PROTEIN, CONSERVED): 0.82 | fold change (protein LMJF.36.3760 60S RIBOSOMAL PROTEIN L10A, PUTATIVE): 1.26 | fold change vs vehicle control (protein LMJF.36.3840 GLYCYL TRNA SYNTHETASE, PUTATIVE): 0.85 | fold change vs vehicle control (protein LMJF.36.4170 OXIDOREDUCTASE, PUTATIVE): 0.84 | fold change vs vehicle control (protein LMJF.36.5010 40S RIBOSOMAL PROTEIN SA, PUTATIVE): 1.09 | fold change (protein LMJF.36.5390 PHOSPHORIBOSYLPYROPHOSPHATE SYNTHETASE, PUTATIVE): 0.86 | fold change vs vehicle control (protein LMJF.36.5620 ISOLEUCYL-TRNA SYNTHETASE, PUTATIVE): 0.97 | fold change vs vehicle control (protein LMJF.36.6430 PROTEIN TRANSPORT PROTEIN SEC23-LIKE PROTEIN): 0.85 | fold change (protein LMJF.36.6760 HY[…], CONSERVED): 1.01 | fold change vs vehicle control (protein LMJF.36.6910 T-COMPLEX PROTEIN 1, THETA SUBUNIT, PUTATIVE): 1 | fold change vs vehicle control (protein LMJF.36.6940 disulfide isomerase PDI): 1.14 | fold change vs vehicle control (protein LMJF.[…] […] EXOPOLYPHOSPHATASE, PUTATIVE): 1.19
